Consider three compounds from patent publication USRE48335E1, “Polymyxin derivatives as antimicrobial compounds” (priority 2014, dated 2020).

One test relates to Enterobacter cloacae. In short, it runs like this:
(§1)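 Broth microdilution, CAMHB, per CLSI M100-S18; compounds as TFA salts; polymyxin B (sulphate) control; read-out MIC.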

A further test relates to Pseudomonas aeruginosa. A digest of the protocol:
as §1

In a further test the test system is Acinetobacter baumannii. In short, it runs like this:
as §1

In the next test the test system is Klebsiella pneumoniae. In short, it runs like this:
as §1

For a further test, the system named is A. baumannii ATCC 19606. The test is described as follows: In vivo efficacy in mouse blood infection model (neutropenic Swiss mice). Particulars: compound, free base 4 mg/kg intravenously 2 h after inoculation, blood at 4 h. In short, it runs like this:
(§2)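 Activity expressed as Δlog10 CFU/mL blood, treated minus saline control, 4 h after a single 4 mg/kg (free base) i.v. dose given 2 h post-infection. Bloodstream infection from i.v. early log-phase inoculum in Swiss mice made neutropenic by i.p. cyclophosphamide on days −4 (150 mg/kg) and −1 (100 mg/kg).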

Another test concerns P. aeruginosa ATCC 27853. Described as above. Particulars: compound, free base 4 mg/kg intravenously 2 h after inoculation, blood at 4 h. In short, it runs like this:
as §2

The subject of test [1] is K. pneumoniae FADDI-KP032. The test is described as above. Particulars: compound, free base 4 mg/kg intravenously 2 h after inoculation, blood at 4 h. A digest of the protocol:
as §2

Values after ≈ are worked out from the molar mass of the structure shown. Positions of bridges follow the written chain, without caps; N, C: chain ends. Non-standard residues stand in square brackets, D forms with d. Residues, ends and D or L forms follow the SMILES beside them. *: point of attachment. Octanoyl = CCCCCCCC(=O)*; Dab = NCC[C@H](N)C(=O)O

In general, MIC refers to the smallest concentration in the dilution series that meets the test's criterion for growth inhibition. Higher therefore signals a less susceptible organism.

With `CCCCCCCC(=O)N[C@@H](CCN)C(=O)N[C@H](C(=O)N[C@@H](CCN)C(=O)N[C@H]1CCNC(=O)[C@H]([C@@H](C)O)NC(=O)[C@H](CCN)NC(=O)[C@H](CCN)NC(=O)[C@H]([C@@H](C)O)NC(=O)[C@@H](CC(C)C)NC(=O)[C@H](CCN)NC1=O)[C@@H](C)O` [Compound 20] (Octanoyl-[Dab]T[Dab][Dab][Dab][dL]T[Dab][Dab]T; lactam 4-C), in the test with Enterobacter cloacae, the “Minimum inhibitory concentration, Ec FADDI-EC001” value was less than 0.125 µg/mL; the “Minimum inhibitory concentration, Ec FADDI-EC003” value amounted to 0.5 µg/mL (≈ 0.437 µM); the “Minimum inhibitory concentration, Ec FADDI-EC006” value was less than 0.125 µg/mL. Besides, in the test on Pseudomonas aeruginosa, the MIC came to 0.5 µg/mL (≈ 0.437 µM); the “Minimum inhibitory concentration, Pa ATCC 27853” value was determined as 0.5 µg/mL (≈ 0.437 µM); the “Minimum inhibitory concentration, Pa FADDI-PA022” value was 0.5 µg/mL (≈ 0.437 µM); the “Minimum inhibitory concentration, Pa FADDI-PA025” value was more than 32 µg/mL. Further, in the test on Acinetobacter baumannii, the MIC was found to be 4 µg/mL (≈ 3.5 µM); the “Minimum inhibitory concentration, Ab A ATCC 17978” value is 4 µg/mL (≈ 3.5 µM); the “Minimum inhibitory concentration, Ab ATCC 19606” value is 4 µg/mL (≈ 3.5 µM); the “Minimum inhibitory concentration, Ab FADDI-AB034” value was determined as 2 µg/mL (≈ 1.75 µM). The MIC in the test with Klebsiella pneumoniae came out at 0.25 µg/mL (≈ 0.219 µM). Besides, the “Δ log (Treated-Control at 4 h)” value in the test on A. baumannii ATCC 19606 is reported as −1.86 log10 CFU/mL. Moreover, in the test on P. aeruginosa ATCC 27853, the “Δ log (Treated-Control at 4 h)” value was −2.13 log10 CFU/mL. In addition, in test [1], the “Δ log (Treated-Control at 4 h)” value was −3.50 log10 CFU/mL.
Take `CCCCCCCC(=O)N[C@@H](CCN)C(=O)N[C@H](C(=O)N[C@@H](CCN)C(=O)N[C@H]1CCNC(=O)[C@H]([C@@H](C)O)NC(=O)[C@H](CCN)NC(=O)[C@H](CCN)NC(=O)[C@H]([C@@H](C)O)NC(=O)[C@@H](Cc2ccccc2)NC(=O)[C@H](CCN)NC1=O)[C@@H](C)O` [Compound 22] (Octanoyl-[Dab]T[Dab][Dab][Dab][dF]T[Dab][Dab]T; lactam 4-C): in the test on Enterobacter cloacae, the “Minimum inhibitory concentration, Ec FADDI-EC001” value is less than 0.125 µg/mL; the “Minimum inhibitory concentration, Ec FADDI-EC003” value was less than 0.125 µg/mL; the “Minimum inhibitory concentration, Ec FADDI-EC006” value came out at 0.25 µg/mL (≈ 0.212 µM). Further, in the test on Pseudomonas aeruginosa, the MIC came out at 1 µg/mL (≈ 0.849 µM); the “Minimum inhibitory concentration, Pa ATCC 27853” value is 1 µg/mL (≈ 0.849 µM); the “Minimum inhibitory concentration, Pa FADDI-PA022” value worked out at 1 µg/mL (≈ 0.849 µM); the “Minimum inhibitory concentration, Pa FADDI-PA025” value turned out to be 16 µg/mL (≈ 13.6 µM). In the test with Acinetobacter baumannii, the MIC was determined as 1 µg/mL (≈ 0.849 µM); the “Minimum inhibitory concentration, Ab A ATCC 17978” value was determined as 1 µg/mL (≈ 0.849 µM); the “Minimum inhibitory concentration, Ab ATCC 19606” value is 1 µg/mL (≈ 0.849 µM); the “Minimum inhibitory concentration, Ab FADDI-AB034” value was 0.5 µg/mL (≈ 0.425 µM). The compound also returned an MIC in the test on Klebsiella pneumoniae of 0.5 µg/mL (≈ 0.425 µM). The “Δ log (Treated-Control at 4 h)” value with A. baumannii ATCC 19606 was −1.50 log10 CFU/mL. Further, in the test with P. aeruginosa ATCC 27853, the “Δ log (Treated-Control at 4 h)” value is −3.10 log10 CFU/mL. For the same compound, in test [1], the “Δ log (Treated-Control at 4 h)” value is given as −3.11 log10 CFU/mL.
For the compound `CCCCCCCC(=O)N[C@@H](CCN)C(=O)N[C@H](C(=O)N[C@@H](CCN)C(=O)N[C@H]1CCNC(=O)[C@H]([C@@H](C)O)NC(=O)[C@H](CCN)NC(=O)[C@H](CCN)NC(=O)[C@H](C(C)C)NC(=O)[C@@H](CC(C)C)NC(=O)[C@H](CCN)NC1=O)[C@@H](C)O` [Compound 23] (Octanoyl-[Dab]T[Dab][Dab][Dab][dL]V[Dab][Dab]T; lactam 4-C), in the test on Enterobacter cloacae, the “Minimum inhibitory concentration, Ec FADDI-EC001” value is less than 0.125 µg/mL; the “Minimum inhibitory concentration, Ec FADDI-EC003” value was less than 0.125 µg/mL; the “Minimum inhibitory concentration, Ec FADDI-EC006” value is 0.25 µg/mL (≈ 0.219 µM). Moreover, in the test with Pseudomonas aeruginosa, the MIC came out at 1 µg/mL (≈ 0.876 µM); the “Minimum inhibitory concentration, Pa ATCC 27853” value came out at 1 µg/mL (≈ 0.876 µM); the “Minimum inhibitory concentration, Pa FADDI-PA022” value amounted to 1 µg/mL (≈ 0.876 µM); the “Minimum inhibitory concentration, Pa FADDI-PA025” value is 4 µg/mL (≈ 3.5 µM). Besides, in the test on Acinetobacter baumannii, the MIC stood at 0.5 µg/mL (≈ 0.438 µM); the “Minimum inhibitory concentration, Ab A ATCC 17978” value was 0.5 µg/mL (≈ 0.438 µM); the “Minimum inhibitory concentration, Ab ATCC 19606” value was 0.5 µg/mL (≈ 0.438 µM); the “Minimum inhibitory concentration, Ab FADDI-AB034” value is 0.25 µg/mL (≈ 0.219 µM). Moreover, the minimum inhibitory concentration (MIC) with Klebsiella pneumoniae was less than 0.125 µg/mL. In the test with A. baumannii ATCC 19606, the “Δ log (Treated-Control at 4 h)” value is listed as −2.82 log10 CFU/mL. Also, the “Δ log (Treated-Control at 4 h)” value in the test with P. aeruginosa ATCC 27853 is −2.48 log10 CFU/mL. For the same compound, the “Δ log (Treated-Control at 4 h)” value in test [1] was −3.88 log10 CFU/mL.
